Measurements as given in US11173145B2, “Compounds useful as inhibitors of indoleamine 2,3-dioxygenase and/or tryptophan dioxygenase” (Board of Regents, The University of Texas System, priority 2017, dated 2021).

Tests used:
[1] = molecular target: T1, IDO1 (Homo sapiens, UniProt P14902); assay: IDO1 cell-based assay (HeLa cells, IFNgamma-induced, N-formylkynurenine/L-tryptophan by RFMS); conditions: 10 ng/mL IFNgamma, 24 hours
T1 construct: endogenous in cells; host or cells: HeLa cells (ATCC), IFNgamma-induced
T1 sequence (P14902 whole entry): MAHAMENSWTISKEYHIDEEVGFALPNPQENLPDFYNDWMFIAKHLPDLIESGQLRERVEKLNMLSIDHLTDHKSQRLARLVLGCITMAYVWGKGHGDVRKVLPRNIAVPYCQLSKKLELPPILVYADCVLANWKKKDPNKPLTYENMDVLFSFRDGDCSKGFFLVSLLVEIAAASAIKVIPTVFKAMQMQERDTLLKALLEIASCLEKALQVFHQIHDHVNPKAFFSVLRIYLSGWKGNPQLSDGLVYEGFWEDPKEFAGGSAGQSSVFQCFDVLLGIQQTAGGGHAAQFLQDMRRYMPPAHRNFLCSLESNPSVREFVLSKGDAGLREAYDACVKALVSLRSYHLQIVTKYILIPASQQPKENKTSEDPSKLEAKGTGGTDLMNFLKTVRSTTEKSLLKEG
How it was run: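 HeLa cells stimulated with 10 ng/mL IFNgamma and exposed to compound (0.5% DMSO final) for 24 h at 37 °C. Conditioned media deproteinized, then N-formylkynurenine and L-tryptophan quantified by RapidFire MS with deuterated tryptophan internal standard; IC50 by curve fitting. Viability checked by CellTiter-Glo.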

[2] = molecular target: T2, mouse IDO1 (Mus musculus, UniProt P28776); assay: Mouse IDO1 cell-based assay (PANC02 cells, mouse IFNgamma-induced, N-formylkynurenine/L-tryptophan by RFMS); conditions: 30 ng/mL mouse IFNgamma, 48 hours
T2 construct: The murine PANC02 pancreatic ductal adenocarcinoma cell line was routinely maintained in DMEM media; endogenous in cells; host or cells: PANC02 murine pancreatic ductal adenocarcinoma cells, induced with mouse IFNgamma
T2 sequence (P28776 whole entry): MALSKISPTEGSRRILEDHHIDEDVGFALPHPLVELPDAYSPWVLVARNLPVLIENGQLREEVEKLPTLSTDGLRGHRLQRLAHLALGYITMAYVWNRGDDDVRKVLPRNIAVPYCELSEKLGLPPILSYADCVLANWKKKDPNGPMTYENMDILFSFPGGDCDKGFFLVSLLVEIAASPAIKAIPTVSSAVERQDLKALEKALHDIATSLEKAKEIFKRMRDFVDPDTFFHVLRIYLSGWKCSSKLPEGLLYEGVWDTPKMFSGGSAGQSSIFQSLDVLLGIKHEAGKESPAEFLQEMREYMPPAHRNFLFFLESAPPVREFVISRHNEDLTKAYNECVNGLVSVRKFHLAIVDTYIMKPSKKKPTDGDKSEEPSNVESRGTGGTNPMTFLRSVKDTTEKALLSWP
Experimental: The murine PANC02 pancreatic ductal adenocarcinoma cell line was routinely maintained in DMEM media containing 10% FBS. Cells (3,000/well) were seeded onto a 384 well plate in 50 μl of media and incubated at 37° C., 5% CO2 overnight. Cell media was aspirated, fresh media containing 30 ng/mL mouse IFNgamma (Gibco Life Technologies, cat #PMC4031) was added, and cells were incubated in absence or presence of various concentrations of compounds (final 0.5% DMSO) for 48 hours at 37° C., 5% CO2. Aliquots of the cell conditioned media was removed from the cell plate, and mixed with equal volume of 200 mM ZnSO4 to precipitate media containing protein. Two volumes of acetonitrile were added by mixing, and samples were then centrifuged at 2250G for 20 minutes at 4° C. Aliquots of the supernatant were diluted 1:10 in 0.1% formic acid containing 3 μM of deuterated Tryptophan as an internal standard.
Samples were analyzed via RFMS to quantify N-Formyl Kynurenine (AUC) and L-tryptophan (AUC). A C18 cartridge was used with mobile phases of 0.1% Formic Acid and 80% ACN/0.1% Formic Acid under isocratic conditions. Dose-response curves were analyzed using IC50 regression curve fitting (GeneData Screener). Curves were plotted as percent of control and normalized by high controls without inhibitor (100%), and low controls (0%) containing 1 μM of epacadostat. Cell viability was also assessed using the Cell Titer Glo Kit (Promega) following manufacture recommendation.

Row | Compound | IC50 [1] [nM] | IC50 [2] [nM]
1 | CCC(NC(=O)c1ccc(Cl)cc1)[C@H]1[C@@H]2C[C@@H](n3nncc3C3CC3)C[C@@H]21 (stereo partly drawn) [Compound 153, 4-chloro-N-(1-((1R,3s,5S,6r)-3-(5-cyclopropyl-1H-1,2,3-triazol-1-yl)bicyclo[3.1.0]hexan-6-yl)propyl)benzamide] | < 200 | < 500
2 | CCC(NC(=O)c1ccc(Cl)cc1)[C@@H]1[C@H]2C=C(c3cncc(C(F)(F)F)c3)C[C@H]21 (stereo partly drawn) [Compound 254, 4-chloro-N-(1-((1R,5R,6S)-3-(5-(trifluoromethyl)pyridin-3-yl)bicyclo[3.1.0]hex-2-en-6-yl)propyl)benzamide] | < 200 | < 500
3 | CCOCc1cn([C@H]2C[C@@H]3[C@H](C2)[C@H]3C(CC)NC(=O)c2ccc(Cl)cc2)nn1 (stereo partly drawn) [Compound 216, 4-chloro-N-(1-((1R,3r,5S,6r)-3-(4-(ethoxymethyl)-1H-1,2,3-triazol-1-yl)bicyclo[3.1.0]hexan-6-yl)propyl)benzamide] | < 200 | < 500
4 | COCc1cn([C@@H]2C[C@@H]3[C@H](C2)[C@H]3C(C)NC(=O)c2ccc(C#N)cc2)nn1 (stereo partly drawn) [Compound 242, 4-cyano-N-(1-((1R,3s,5S,6r)-3-(4-(methoxymethyl)-1H-1,2,3-triazol-1-yl)bicyclo[3.1.0]hexan-6-yl)ethyl)benzamide] | 200 to 2000 | > 5000
5 | CCC(NC(=O)c1ccc(Cl)cc1)[C@H]1[C@@H]2C[C@@H](n3c(=O)n(C)c4ccccc43)C[C@@H]21 (stereo partly drawn) [Compound 181, 4-chloro-N-(1-((1R,3s,5S,6r)-3-(3-methyl-2-oxo-2,3-dihydro-1H-benzo[d]imidazol-1-yl)bicyclo[3.1.0]hexan-6-yl)propyl)benzamide] | < 200 | < 500
6 | CCC(NC(=O)c1ccc(Cl)cc1)[C@H]1[C@@H]2C[C@@H](C(C#N)c3ccccc3)C[C@@H]21 (stereo partly drawn) [Compound 166, 4-chloro-N-(1-((1R,3s,5 S,6r)-3-(cyano(phenyl)methyl)bicyclo[3.1.0]hexan-6-yl)propyl) benzamide] | < 200 | < 500
7 | CCC(NC(=O)c1ccc(Cl)cc1)[C@H]1[C@@H]2C[C@@H](n3ncnc3C3CC3)C[C@@H]21 (stereo partly drawn) [Compound 258, 4-chloro-N-(1-((1R,3s,5S,6r)-3-(5-cyclopropyl-1H-1,2,4-triazol-1-yl)bicyclo[3.1.0]hexan-6-yl)propyl)benzamide] | 200 to 2000 | 2000 to 5000
8 | CCC(NC(=O)c1ccc(Cl)cc1)[C@H]1[C@@H]2C[C@@H](n3cc(C4CNC4)nn3)C[C@@H]21 (stereo partly drawn) [Compound 237, N-(1-((1R,3s,5S,6r)-3-(4-(azetidin-3-yl)-1H-1,2,3-triazol-1-yl)bicyclo[3.1.0]hexan-6-yl)propyl)-4-chlorobenzamide] | > 5000 | > 5000
9 | O=C(NC(CO)[C@H]1[C@@H]2C[C@@H](n3cc(C4CC4)nn3)C[C@@H]21)c1ccc(Cl)cc1 (stereo partly drawn) [Compound 168, 4-chloro-N-(1-((1R,3s,5S,6r)-3-(4-cyclopropyl-1H-1,2,3-triazol-1-yl)bicyclo[3.1.0]hexan-6-yl)-2-hydroxyethyl)benzamide] | 2000 to 5000 | > 5000
10 | CCC(NC(=O)c1ccc(Cl)cc1)[C@H]1[C@@H]2C[C@@H](n3ccc4ncnc-4c3)C[C@@H]21 (stereo partly drawn) [Compound 198, N-(1-((1R,3s,5S,6r)-3-(5H-imidazo[4,5-c]pyridin-5-yl)bicyclo[3.1.0]hexan-6-yl)propyl)-4-chlorobenzamide] | < 200 | 500 to 2000
11 | CCC(NC(=O)c1ccc(Cl)cc1)[C@H]1[C@@H]2C[C@@H](C(C(=O)OC)c3ccccc3)C[C@@H]21 (mixture of isomers) [Compound 202, methyl (S)-2-((1R,3S,5S, 6S)-6-((R)-1-(4-chlorobenzamido)propyl)bicyclo[3.1.0]hexan-3-yl)-2-phenylacetate and methyl (R)-2-((R, 3S, 5S, 6S)-6-((S)-1-(4-chlorobenzamido)propyl)bicyclo[3.1.0]hexan-3-yl)-2-phenylacetate] | 200 to 2000 | 500 to 2000

Other lines, results leading:

Row | IC50 [1] [nM] | IC50 [2] [nM] | Compound
12 | < 200 | > 5000 | CCC(NC(=O)c1ccc(Cl)cc1)[C@H]1[C@@H]2C[C@@H](NC(=O)c3cccnc3)C[C@@H]21 (stereo partly drawn) [Compound 145, N-((1R,3s,5S,6r)-6-(1-(4-chlorobenzamido)propyl)bicyclo[3.1.0]hexan-3-yl)nicotinamide]
13 | 200 to 2000 | > 5000 | CCC(NC(=O)c1ccc(Cl)cc1)[C@H]1[C@@H]2C[C@@H](NC(=O)c3cn[nH]c3)C[C@@H]21 (stereo partly drawn) [Compound 177, N-((1R,3s,5S,6r)-6-(1-(4-chlorobenzamido)propyl)bicyclo[3.1.0]hexan-3-yl)-1H-pyrazole-4-carboxamide]
14 | 200 to 2000 | 500 to 2000 | CCC(NC(=O)c1ccc(Cl)cc1)[C@H]1[C@@H]2C[C@@H](Nc3cc(F)cc(F)c3[N+](=O)[O-])C[C@@H]21 (stereo partly drawn) [Compound 243, 4-chloro-N-(1-((1R,3s,5S,6r)-3-((3,5-difluoro-2-nitrophenyl)amino)bicyclo[3.1.0]hexan-6-yl)propyl)benzamide]
15 | < 200 | 500 to 2000 | CCC(NC(=O)c1ccc(Cl)cc1)[C@H]1[C@@H]2C[C@@H](n3nc4cc(F)cc(F)c4n3)C[C@@H]21 (stereo partly drawn) [Compound 213, 4-chloro-N-(1-((1R,3s,5S,6r)-3-(4,6-difluoro-2H-benzo[d][1,2,3]triazol-2-yl)bicyclo[3.1.0]hexan-6-yl)propyl)benzamide]
16 | 200 to 2000 | 2000 to 5000 | CCC(NC(=O)c1ccc(Cl)cc1)[C@H]1[C@@H]2C[C@H](n3cc(CO)nn3)C[C@@H]21 (stereo partly drawn) [Compound 187, 4-chloro-N-(1-((1R,3r,5S,6r)-3-(4-(hydroxymethyl)-1H-1,2,3-triazol-1-yl)bicyclo[3.1.0]hexan-6-yl)propyl)benzamide]
17 | < 200 | 2000 to 5000 | CCC(NC(=O)c1ccc(Cl)cc1)[C@H]1[C@@H]2C[C@@H](NC(=O)c3cc(C(F)(F)F)ccn3)C[C@@H]21 (stereo partly drawn) [Compound 225, N-((1R,3s,5S,6r)-6-(1-(4-chlorobenzamido)propyl)bicyclo[3.1.0]hexan-3-yl)-4-(trifluoromethyl)picolinamide]
18 | < 200 | < 500 | CCC(NC(=O)c1ccc(Cl)cc1)[C@H]1[C@@H]2C[C@@H](n3ncc4cc(F)ccc43)C[C@@H]21 (stereo partly drawn) [Compound 208, 4-chloro-N-(1-((1R,3s,5S,6r)-3-(5-fluoro-1H-indazol-1-yl)bicyclo[3.1.0]hexan-6-yl)propyl)benzamide]
19 | < 200 | 500 to 2000 | CCC(NC(=O)c1ccc(Cl)cc1)[C@H]1[C@@H]2C[C@@H](n3ncc4ccc(F)cc43)C[C@@H]21 (stereo partly drawn) [Compound 162, 4-chloro-N-(1-((1R,3s,5S,6r)-3-(6-fluoro-1H-indazol-1-yl)bicyclo[3.1.0]hexan-6-yl)propyl)benzamide]
20 | < 200 | < 500 | CCC(NC(=O)c1ccc(Cl)cc1)[C@H]1[C@@H]2C[C@@H](n3cc4c(F)cccc4n3)C[C@@H]21 (stereo partly drawn) [Compound 209, 4-chloro-N-(1-((1R,3s,5S,6r)-3-(4-fluoro-2H-indazol-2-yl)bicyclo[3.1.0]hexan-6-yl)propyl)benzamide]
21 | 200 to 2000 | 500 to 2000 | CCC(NC(=O)c1ccc(Cl)cc1)[C@H]1[C@@H]2C[C@@H](n3c(=O)[nH]c4ccccc43)C[C@@H]21 (stereo partly drawn) [Compound 180, 4-chloro-N-(1-((1R,3s,5S,6r)-3-(2-oxo-2,3-dihydro-1H-benzo[d]imidazol-1-yl)bicyclo[3.1.0]hexan-6-yl)propyl)benzamide]
22 | < 200 | 500 to 2000 | CCC(NC(=O)c1ccc(Cl)cc1)[C@H]1[C@@H]2C[C@@H](n3ncc4cccc(F)c43)C[C@@H]21 (stereo partly drawn) [Compound 206, 4-chloro-N-(1-((1R,3s,5S,6r)-3-(7-fluoro-1H-indazol-1-yl)bicyclo[3.1.0]hexan-6-yl)propyl)benzamide]
23 | < 200 | 2000 to 5000 | CCC(NC(=O)c1ccc(Cl)cc1)[C@H]1[C@@H]2C[C@@H](Oc3ncnc4cc(Cl)ccc34)C[C@@H]21 (stereo partly drawn) [Compound 253, 4-chloro-N-(1-((1R,3s,5S,6r)-3-((7-chloroquinazolin-4-yl)oxy)bicyclo[3.1.0]hexan-6-yl)propyl)benzamide]
24 | > 5000 | > 5000 | CCC(NC(=O)c1ccc(Cl)cc1)[C@H]1[C@@H]2C[C@@H](n3cc(NC(C)=O)nn3)C[C@@H]21 (stereo partly drawn) [Compound 256, N-(1-((1R,3s,5S,6r)-3-(4-acetamido-1H-1,2,3-triazol-1-yl)bicyclo[3.1.0]hexan-6-yl)propyl)-4-chlorobenzamide]
25 | < 200 | 500 to 2000 | CCC(NC(=O)c1ccc(Cl)cc1)[C@H]1[C@@H]2C[C@@H](Nc3ccc(F)cn3)C[C@@H]21 (stereo partly drawn) [Compound 227, 4-chloro-N-(1-((R, 3s, 5S, 6r)-3-((5-fluoropyridin-2-yl)amino)bicyclo[3.1.0]hexan-6-yl)propyl)benzamide]
